Experimental data reported in patent publication US20150148234A1, “HERBICIDE-RESISTANT SUNFLOWER PLANTS WITH MULTIPLE HERBICIDE RESISTANT ALLELES OF AHASL1 AND METHODS OF USE” (NIDERA S.A., priority 2013, published 2015).

Experiments:
[1] = tested on: homozygous A122T/A122T lines; assay: field phytotoxicity trial North Dakota 2006 (Example 3); format: in vivo, sunflower; conditions: 200 g ai/ha of imazamox, 21 DAT
Description: (§1) • Spray volume: 10 gallons per acre (GPA) (or 100 liters/ha) for backpack sprayer or 20 GPA (or 200 liters/ha) for tractor mounted boom • Growth Stage at Herbicide Application: 2-4 leaves • Entry 15 (WT Maintainer line) was left unsprayed in all treatment blocks.
(§2) Phytotoxicity ratings were assessed at 7 and 21 days following herbicide application.
(§3) The data was subjected to an ANOVA analysis and the means from the 3 repetitions are presented in Table 7 (phytotoxicity at 7 days post-treatment) and Table 8 (phytotoxicity at 21 days post-treatment).

[2] = tested on: heterozygous A205V/A122T lines; assay: as above; format: in vivo, sunflower; conditions: 200 g ai/ha of imazamox, 21 DAT
Description: as §1, §2, §3

[3] = tested on: homozygous A205V/A205V lines; assay: as above; format: in vivo, sunflower; conditions: 200 g ai/ha of imazamox, 21 DAT
Description: as §1, §2, §3

[4] = tested on: AHAS enzyme of WT line (B7); assay: AHAS enzyme activity assay, Sets 1 and 2; format: biochemical, sunflower; conditions: 100 μM
Description: Twelve greenhouse grown sunflower plants from each of the lines depicted in Table 21 were bulked and subjected to an AHAS enzyme activity assay via the method of Singh et al. (1988) Anal. Biochem. 171:173-179. Each activity assay was repeated twice. Due to the large number of samples, the experiment was split into two sets (Table 21).
Young, actively growing leaves, from four week old plantlets, were ground in a mortar and pestle with liquid N2 and extracted with a buffer composed of 100 mM Pyruvate, 200 mM KH2PO4, 20 mM MgCl2, 2 mM thiamine pyrophosphate and […]. Plant extracts were then spun through a 10 mL Zeba™ TM desalt spin column (Pierce #89893) as per the manufacturer's recommendation. The inhibition assay was performed as described by Singh et al. (1988) Anal. Biochem. 171:173-179. Assays were conducted in a 96-well format. Fifty μl of inhibitor was added to each well containing 50 μl of soluble protein extract to give final concentrations of 0.78, 1.56, 3.125, 6.25, 12.5, 25, 50 and 100 μM imazamox or 0.78, 1.56, 3.125, 6.25, 12.5, 25, 50 and 100 μM imazapyr. Zero herbicide controls were also included for each line. […] Absorbance was measured at 530 nm. AHAS activity, expressed as the mean of the absorbance values for each treatment, was presented as a percentage of the mean of the zero-herbicide controls.

[5] = tested on: sunflower line BTI-OL-M1709; assay: tolerance to imidazolinones, greenhouse (Example 8); conditions: 160 gr/ha at V4, fourteen days after treatment
[6] = tested on: sunflower line B770 (conventional); assay: as above
[7] = tested on: control line HA425 (A205V); assay: imazapyr challenge of segregating population (Example 1); format: in vivo, sunflower; conditions: 320 g a.i. ha-1
Description: To determine the phenotypic interactions of the resistance gene A122T and the Imr1 gene (A205V) already described in IMI-R sunflowers (HA425), F1, F2 and BC1F1 populations from the cross GM40 (A122T)/HA425 (A205V) were evaluated at two herbicide applications rates (80 and 320 g. a. i. Ha^−1 of imazapyr). […] When F2 and BC1F1 populations were scored at the higher herbicide rate (320 g. a. i. Ha-1), which discriminates both parents, segregation for susceptibility was observed. Only two phenotypic classes could be detected, a resistant class with plants without any injury or slight symptoms and a susceptible phenotype that was killed like the control line HA425.

[8] = tested on: sunflower line VB141 (high oleic); assay: tolerance to imidazolinones, greenhouse (Example 8)
[9] = tested on: sunflower line OB712 (high oleic); assay: as above
[10] = tested on: sunflower line BTI-OL-2201; assay: as above; conditions: 160 gr/ha at V4, fourteen days after treatment
[11] = tested on: heterozygous A205V entries; assay: field phytotoxicity trial North Dakota 2006 (Example 3); format: in vivo, sunflower; conditions: 160 g ai/ha of imazapyr, 21 DAT
Description: as §1, §2, §3

[12] = tested on: sunflower line GM40 (A122T); assay: tolerance to imidazolinones, greenhouse (Example 8); conditions: 160 gr/ha at V4, fourteen days after treatment
[13] = tested on: sunflower line BTI-OL-M1511; assay: as above; conditions: 160 gr/ha at V4, fourteen days after treatment
[14] = 160 gr/ha at V4, fourteen days after treatment

SMILES	phytotoxicity [1]	phytotoxicity [2]	phytotoxicity [3]	AHAS activity, % of untreated control ([4]; Set 1 (FIG. 13))	AHAS activity, % of untreated control ([4]; Set 2 (FIG. 14))	Mean Phytotoxicity Index (0-9) [5]	outcome of the herbicide treatment ([6]; 160 gr/ha at V4)	Mean Phytotoxicity Index (0-9) [6, 14]	outcome of herbicide application [7]	outcome of the herbicide treatment ([8]; 160 gr/ha at V4)	Mean Phytotoxicity Index (0-9) [8, 14]	outcome of the herbicide treatment ([9]; 160 gr/ha at V4)	Mean Phytotoxicity Index (0-9) [9, 14]	Mean Phytotoxicity Index (0-9) [10]	phytotoxicity [11]	Mean Phytotoxicity Index (0-9) [12]	Mean Phytotoxicity Index (0-9) [13]
COCc1cnc(C2=NC(C)(C(C)C)C(=O)N2)c(C(=O)O)c1 (centres unmarked) [imazamox]	3-5%	2-3%	15-22%	17%	11%												
CC(C)C1(C)N=C(c2ncccc2C(=O)O)NC1=O (centres unmarked) [imazapyr]						0.2	killed	8.7	killed	killed	8.5	killed	9	0.2	20-43%	0.2	0.5
